pIC50: −log10 of the molar value.

The assay deals with T1, SHP2 (Homo sapiens, UniProt Q06124).
T1 sequence (Q06124 1-593): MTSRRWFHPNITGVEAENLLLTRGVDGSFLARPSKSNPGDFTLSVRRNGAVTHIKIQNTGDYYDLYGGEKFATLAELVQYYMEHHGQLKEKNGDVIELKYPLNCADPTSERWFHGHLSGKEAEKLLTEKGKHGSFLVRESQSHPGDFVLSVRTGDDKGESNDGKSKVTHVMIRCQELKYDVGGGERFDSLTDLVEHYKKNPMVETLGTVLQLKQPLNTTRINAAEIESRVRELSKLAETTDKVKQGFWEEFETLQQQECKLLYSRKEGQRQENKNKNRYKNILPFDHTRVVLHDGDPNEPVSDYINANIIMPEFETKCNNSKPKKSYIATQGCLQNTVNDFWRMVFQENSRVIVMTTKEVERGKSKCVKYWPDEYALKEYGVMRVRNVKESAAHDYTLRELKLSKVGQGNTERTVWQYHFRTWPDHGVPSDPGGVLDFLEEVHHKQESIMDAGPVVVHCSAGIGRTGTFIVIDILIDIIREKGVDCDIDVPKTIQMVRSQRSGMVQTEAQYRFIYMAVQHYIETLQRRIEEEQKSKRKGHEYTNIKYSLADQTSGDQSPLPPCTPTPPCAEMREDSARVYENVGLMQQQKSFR
Kind of assay: SHP2 allosteric inhibitor enzyme activity assay (DiFMUP fluorescence). It counts as biochemical. To be noted: class symbols. An outline of the steps: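 SHP2 activated by 0.5 μM IRS1_pY1172(dPEG8)pY1222 peptide, 0.2 ng enzyme per well, 1 h at room temperature with compound (1 μM top, 3-fold series), then DiFMUP substrate 1 h. Buffer: 60 mM HEPES, 75 mM NaCl, 75 mM KCl, 0.05% BRIJ-35, 1 mM EDTA, 5 mM DTT. Fluorescence ex 340/em 450 nm; IC50 by variable-slope fit.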
`CC1(C)Cc2ncccc2C(c2n[nH]c3nc(N4CCC5(CC4)Cc4ccccc4[C@H]5N)[nH]c(=O)c23)=C1F` [Example 190, (S)-6-(1-amino-1,3-dihydrospiro[indene-2,4′-piperidin]-1′-yl)-3-(6-fluoro-7,7-dimethyl-7,8-dihydroquinolin-5-yl)-1,5-dihydro-4H-pyrazolo[3,4-d]pyrimidin-4-one] had a pIC50 of no less than 7.70.

`COc1ccc2c(c1)[C@@H](N)C1(CCN(c3nc4[nH]nc(C5(c6ccccc6)CC5)c4c(=O)[nH]3)CC1)C2` [Example 192, (S)-6-(1-amino-6-methoxy-1,3-dihydrospiro[indene-2,4′-piperidin]-1′-yl)-3-(1-phenylcyclopropyl)-1,5-dihydro-4H-pyrazolo[3,4-d]pyrimidin-4-one]: the pIC50 was no less than 7.70.

Compound `N[C@@H]1c2nc(Cl)sc2CC12CCN(c1nc3[nH]nc(C4(c5ccccc5)CC4)c3c(=O)[nH]1)CC2` [Example 193, (S)-6-(4-amino-2-chloro-4,6-dihydrospiro[cyclopenta[d]thiazole-5,4′-piperidin]-1′-yl)-3-(1-phenylcyclopropyl)-1,5-dihydro-4H-pyrazolo[3,4-d]pyrimidin-4-one] had a pIC50 of no less than 7.70.

Compound `N[C@@H]1c2cc(Cl)ccc2CC12CCN(c1nc3[nH]nc(C4(c5ccccc5)CC4)c3c(=O)[nH]1)CC2` [Example 194, (S)-6-(1-amino-6-chloro-1,3-dihydrospiro[indene-2,4′-piperidin]-1′-yl)-3-(1-phenylcyclopropyl)-1,5-dihydro-4H-pyrazolo[3,4-d]pyrimidin-4-one] had a pIC50 of no less than 7.70.

With `N[C@@H]1c2cc(F)ccc2CC12CCN(c1nc3[nH]nc(C4(c5ccccc5)CC4)c3c(=O)[nH]1)CC2` [Example 195, (S)-6-(1-amino-6-fluoro-1,3-dihydrospiro[indene-2,4′-piperidin]-1′-yl)-3-(1-phenylcyclopropyl)-1,5-dihydro-4H-pyrazolo[3,4-d]pyrimidin-4-one], the negative logarithm of the IC50 (pIC50) is no less than 7.70.

For the compound `CSc1ccc2c(c1)[C@@H](N)C1(CCN(c3nc4[nH]nc(C5(c6ccccc6)CC5)c4c(=O)[nH]3)CC1)C2` [Example 196, (S)-6-(1-amino-6-(methylthio)-1,3-dihydrospiro[indene-2,4′-piperidin]-1′-yl)-3-(1-phenylcyclopropyl)-1,5-dihydro-4H-pyrazolo[3,4-d]pyrimidin-4-one], the pIC50 was no less than 7.70.

`N#Cc1ccc2c(c1)[C@@H](N)C1(CCN(c3nc4[nH]nc(C5(c6ccccc6)CC5)c4c(=O)[nH]3)CC1)C2` [Example 197, (S)-1-amino-1′-(4-oxo-3-(1-phenylcyclopropyl)-4,5-dihydro-1H-pyrazolo[3,4-d]pyrimidin-6-yl)-1,3-dihydrospiro[indene-2,4′-piperidine]-6-carbonitrile] showed a pIC50 of no less than 7.70.

As to `N[C@@H]1Cc2ccccc2C12CCN(c1nc3[nH]nc(C4(c5ccccc5)CC4)c3c(=O)[nH]1)CC2` [Example 198, (R)-6-(2-amino-2,3-dihydrospiro[indene-1,4′-piperidin]-1′-yl)-3-(1-phenylcyclopropyl)-1,5-dihydro-4H-pyrazolo[3,4-d]pyrimidin-4-one], the pIC50 was 7.22 to 7.70.

For the compound `N[C@@H]1Cn2nccc2C12CCN(c1nc3[nH]nc(C4(c5ccccc5)CC4)c3c(=O)[nH]1)CC2` [Example 199, (S)-6-(5′-amino-5′,6′-dihydrospiro[piperidine-4,4′-pyrrolo[1,2-b]pyrazol]-1-yl)-3-(1-phenylcyclopropyl)-1,5-dihydro-4H-pyrazolo[3,4-d]pyrimidin-4-one], the negative-log IC50 (pIC50) was 7.22 to 7.70.

In the case of `N[C@@H]1c2cccnc2CC12CCN(c1nc3[nH]nc(C4(c5ccccc5)CC4)c3c(=O)[nH]1)CC2` [Example 200, (S)-6-(5-amino-5,7-dihydrospiro[cyclopenta[b]pyridine-6,4′-piperidin]-1-yl)-3-(1-phenylcyclopropyl)-1,5-dihydro-4H-pyrazolo[3,4-d]pyrimidin-4-one], the pIC50 is no less than 7.70.

In turn, `N[C@@H]1c2ccccc2CC12CCN(c1nc3[nH]nc(C4(c5cccc(C6CC6)c5)CC4)c3c(=O)[nH]1)CC2` [Example 218, (S)-6-(1-amino-1,3-dihydrospiro[indene-2,4′-piperidin]-1′-yl)-3-(1-(3-cyclopropylphenyl)cyclopropyl)-1,5-dihydro-4H-pyrazolo[3,4-d]pyrimidin-4-one] had a pIC50 of no less than 7.70.

For the compound `N[C@@H]1c2ccccc2CC12CCN(c1nc3[nH]nc(C4(c5ccncc5)CC4)c3c(=O)[nH]1)CC2` [Example 219, (S)-6-(1-amino-1,3-dihydrospiro[indene-2,4′-piperidin]-1′-yl)-3-(1-(pyridin-4-yl)cyclopropyl)-1,5-dihydro-4H-pyrazolo[3,4-d]pyrimidin-4-one], the negative-log IC50 (pIC50) is no less than 7.70.

On to `N[C@@H]1c2ccccc2CC12CCN(c1nc3[nH]nc(C4(c5ccccc5F)CC4)c3c(=O)[nH]1)CC2` [Example 220, (S)-6-(1-amino-1,3-dihydrospiro[indene-2,4′-piperidin]-1′-yl)-3-(1-(2-fluorophenyl)cyclopropyl)-1,5-dihydro-4H-pyrazolo[3,4-d]pyrimidin-4-one], for which the negative-log IC50 (pIC50) is no less than 7.70.

`CP(C)(=O)c1cccc(C2(c3n[nH]c4nc(N5CCC6(CC5)Cc5ccccc5[C@H]6N)[nH]c(=O)c34)CC2)c1` [Example 224, (S)-6-(1-amino-1,3-dihydrospiro[indene-2,4′-piperidin]-1′-yl)-3-(1-(3-(dimethylphosphoryl)phenyl)cyclo-propyl)-1,5-dihydro-4H-pyrazolo[3,4-d]pyrimidin-4-one] showed a pIC50 of no less than 7.70.

On to `CSc1cccc(C2(c3n[nH]c4nc(N5CCC6(CC5)Cc5ccccc5[C@H]6N)[nH]c(=O)c34)CC2)c1` [Example 225, (S)-6-(1-amino-1,3-dihydrospiro[indene-2,4′-piperidin]-1′-yl)-3-(1-(3-(methylthio)phenyl)cyclopropyl)-1,5-dihydro-4H-pyrazolo[3,4-d]pyrimidin-4-one], for which the pIC50 is no less than 7.70.

As for `N[C@@H]1c2ccccc2CC12CCN(c1nc3[nH]nc(C4(c5cccc(CO)c5)CC4)c3c(=O)[nH]1)CC2` [Example 226, (S)-6-(1-amino-1,3-dihydrospiro[indene-2,4′-piperidin]-1′-yl)-3-(1-(3-(hydroxymethyl)phenyl)cyclo-propyl)-1,5-dihydro-4H-pyrazolo[3,4-d]pyrimidin-4-one], the pIC50 is no less than 7.70.

Compound `N[C@@H]1c2ccccc2CC12CCN(c1nc3[nH]nc(C4(c5cccc(OC6CC6)c5)CC4)c3c(=O)[nH]1)CC2` [Example 227, (S)-6-(1-amino-1,3-dihydrospiro[indene-2,4′-piperidin]-1′-yl)-3-(1-(3-cyclopropoxyphenyl)cyclopropyl)-1,5-dihydro-4H-pyrazolo[3,4-d]pyrimidin-4-one] gave a negative-log IC50 (pIC50) of no less than 7.70.

`COc1ccc(C2(c3n[nH]c4nc(N5CCC6(CC5)Cc5ccccc5[C@H]6N)[nH]c(=O)c34)CC2)c(OC)c1` [Example 232, (S)-6-(1-amino-1,3-dihydrospiro[indene-2,4′-piperidin]-1′-yl)-3-(1-(2,4-dimethoxyphenyl)cyclopropyl)-1,5-dihydro-4H-pyrazolo[3,4-d]pyrimidin-4-one] showed a negative-log IC50 (pIC50) of no less than 7.70.

`N[C@@H]1c2ccccc2CC12CCN(c1nc3[nH]nc(C4(c5ccc(Cl)cc5Cl)CC4)c3c(=O)[nH]1)CC2` [Example 235, (S)-6-(1-amino-1,3-dihydrospiro[indene-2,4′-piperidin]-1′-yl)-3-(1-(2,4-dichlorophenyl)cyclopropyl)-1,5-dihydro-4H-pyrazolo[3,4-d]pyrimidin-4-one] gave a pIC50 of no less than 7.70.

`N[C@@H]1c2ccccc2CC12CCN(c1nc3[nH]nc(C4(c5ccsc5)CC4)c3c(=O)[nH]1)CC2` [Example 236, (S)-6-(1-amino-1,3-dihydrospiro[indene-2,4′-piperidin]-1′-yl)-3-(1-(thiophen-3-yl)cyclopropyl)-l,5-dihydro-4H-pyrazolo[3,4-d]pyrimidin-4-one] showed a pIC50 of no less than 7.70.

Compound `N#Cc1nnc(C2(c3n[nH]c4nc(N5CCC6(CC5)Cc5ccccc5[C@H]6N)[nH]c(=O)c34)CC2)s1` [Example 238, (S)-5-(1-(6-(1-amino-1,3-dihydrospiro[indene-2,4′-piperidin]-1′-yl)-4-oxo-4,5-dihydro-1H-pyrazolo[3,4-d]pyrimidin-3-yl)cyclopropyl)-1,3,4-thiadiazole-2-carbonitrile] had a pIC50 of no less than 7.70.

Turning to `N[C@@H]1c2ccccc2CC12CCN(c1nc3[nH]nc(C4(c5nncs5)CC4)c3c(=O)[nH]1)CC2` [Example 239, (S)-3-(1-(1,3,4-thiadiazol-2-yl)cyclopropyl)-6-(1-amino-1,3-dihydrospiro[indene-2,4′-piperidin]-1′-yl)-1,5-dihydro-4H-pyrazolo[3,4-d]pyrimidin-4-one], the pIC50 is no less than 7.70.

`Cc1snnc1C1(c2n[nH]c3nc(N4CCC5(CC4)Cc4ccccc4[C@H]5N)[nH]c(=O)c23)CC1` [Example 241, (S)-6-(1-amino-1,3-dihydrospiro[indene-2,4′-piperidin]-1′-yl)-3-(1-(5-methyl-1,2,3-thiadiazol-4-yl)cyclopropyl)-1,5-dihydro-4H-pyrazolo[3,4-d]pyrimidin-4-one] gave a pIC50 of no less than 7.70.

For the origin of these results see patent US20230192705A1, “SHP2 INHIBITORS, COMPOSITIONS AND USES THEREOF” (Betta Pharmaceuticals Co., Ltd, priority 2020, published 2023).
